Data published in paper PMC3638638, “Metabonomics Combined with UPLC-MS Chemical Profile for Discovery of Antidepressant Ingredients of a Traditional Chinese Medicines Formula, Chaihu-Shu-Gan-San” (Evidence-based Complementary and Alternative Medicine : eCAM, 2013).
Counter-ions that a name gives are not always drawn. Like-named read-outs stand apart in the source and are kept apart here.

What was measured:
rat MAO-A = target: T1, rat MAO-A (Rattus norvegicus, UniProt P21396); assay: Monoamine oxidase A (MAO-A) activity assay, spectrophotometric enzymatic kit; format: biochemical
T1 sequence (P21396 1-526): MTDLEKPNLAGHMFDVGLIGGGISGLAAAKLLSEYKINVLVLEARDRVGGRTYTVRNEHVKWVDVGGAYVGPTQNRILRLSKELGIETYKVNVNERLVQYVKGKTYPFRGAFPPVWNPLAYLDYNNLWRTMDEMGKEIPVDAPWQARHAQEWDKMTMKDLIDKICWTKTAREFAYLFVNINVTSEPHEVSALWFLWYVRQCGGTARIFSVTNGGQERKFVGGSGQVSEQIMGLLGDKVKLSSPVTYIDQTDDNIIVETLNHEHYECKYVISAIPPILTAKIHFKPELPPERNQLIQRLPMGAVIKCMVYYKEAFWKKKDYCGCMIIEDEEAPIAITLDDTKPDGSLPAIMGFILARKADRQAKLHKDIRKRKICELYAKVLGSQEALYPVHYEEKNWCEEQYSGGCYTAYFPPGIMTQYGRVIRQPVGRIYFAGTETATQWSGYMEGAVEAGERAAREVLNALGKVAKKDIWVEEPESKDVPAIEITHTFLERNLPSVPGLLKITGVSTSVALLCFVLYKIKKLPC
Method: MAO was purified from the rat liver according to the Gómez method after minor modification. The liver tissue was rapidly removed into ice cold homogenized (1 : 10, w/v) in 50 mM KH2PO4 buffer, pH 7.2, containing […]. Following centrifugation at 1000 g for 10 min, the supernatant was centrifuged at 10,000 g for 30 min to obtain crude mitochondrial pellet.
The MAO-A activity was measured by spectrophotometrically (Mapada, UV-3100, China) using enzymatic kits according to the instructions (Nanjing Jiancheng Institute of Biotechnology). IC50 values were used to estimate the inhibition calculated in relation to a sample of the enzyme treated under the same conditions without inhibitor, versus inhibitor concentration.

[1] = parameters: method as in PMID 3435494, PMID 20515525; conditions: must be hydrolyzed by gut microflora enzymes to aglycone naringenin; cited from earlier work
CUMS treated rats = assay: Ethological study of antidepressant effect on CUMS rat model (body weight, open-field test, sucrose consumption); format: in vivo; conditions: n=8
Method: 40 healthy, adult, male Wistar rats, weighing 200 ± 20 g each, were purchased from the Institute of Laboratory Animal Science, CAMS and PUMC (Beijing, China). The rats were housed individually in cages for one week to adapt to the environment under controlled conditions of 12 h light–12 h dark cycles (lights on from 6:00 a.m. to 6:00 p.m.), […], and temperature (20 ± 3°C) with commercial diet and water available ad libitum. All experimental procedures were approved by the Ethics Committee of the Institute of Medicinal Plant Development, CAMS & PUMC.
All rats except control group were subjected to a series of variable stimuli as previously described after minor modification.
The antidepressant effects of CSGS and QZ extracts were evaluated on a CUMS rat model, a well-validated animal model of depression (see supplementary material Table S1 available online at http://dx.doi.org/10.1155/2013/487158).

[2] = rat MAO-A as enzyme source (rat liver mitochondrial pellet)
[3] = rat MAO-A as enzyme source (rat liver mitochondrial pellet), read-out: IC50, inhibition against MAO-A activity

IC50, inhibition against MAO-A activity (rat MAO-A; [2])	IC50 (rat MAO-A; [3]) [µM]	Compound	IC50 (rat MAO-A) [µM]	other results
relatively weak	26.7	COc1ccc([C@@H]2CC(=O)c3c(O)cc(O[C@@H]4O[C@H](CO[C@@H]5O[C@@H](C)[C@H](O)[C@@H](O)[C@H]5O)[C@@H](O)[C@H](O)[C@H]4O)cc3O2)cc1O [Hesperidin]		
		C[C@@H]1O[C@@H](O[C@H]2[C@H](Oc3cc(O)c4c(c3)O[C@H](c3ccc(O)cc3)CC4=O)O[C@H](CO)[C@@H](O)[C@@H]2O)[C@H](O)[C@H](O)[C@H]1O [Naringin]	5.82	Absorption from the gastrointestinal tract in its original form [1]: poorly absorbed
		CNCCC(Oc1ccc(C(F)(F)F)cc1)c1ccccc1 (stereo not drawn) [Positive control, Fluoxetine hydrochloride]		Body weight, 0W (CUMS treated rats; 0W (baseline), mean): 191.702 g; Sucrose consumption, 4W (CUMS treated rats; 4W of treatment): 17.5 g; Open-field test (OFT), 0W (CUMS treated rats; horizontal movements, 0W (baseline), mean): 81.7; Open-field test (OFT), 4W (CUMS treated rats; horizontal movements, 4W of treatment, mean): 61.4
relatively weak	93.8	COc1ccc([C@@H]2CC(=O)c3c(O)cc(O[C@@H]4O[C@H](CO)[C@@H](O)[C@H](O)[C@H]4O[C@@H]4O[C@@H](C)[C@H](O)[C@@H](O)[C@H]4O)cc3O2)cc1O [Neohesperidin]		

Compound	IC50, inhibition against MAO-A activity (rat MAO-A; [2])	IC50 (rat MAO-A; [3]) [µM]	IC50 (rat MAO-A) [µM]	other results
CNCC(O)c1ccc(O)cc1 (stereo not drawn) [Synephrine]	relatively weak		15.2	
